{
  "source": "patent US20260183209A1",
  "about": "“USE OF SANDALORE FOR IMPROVING THE STRUCTURE OF HAIR” (WELLA GERMANY GMBH, priority 2022, published 2026)",
  "key": {"keratin 85 (KRT85)": {"tested_on": "keratin 85 (KRT85)", "assay": "Keratin 85 expression, fluorescence intensity in the precortical hair matrix of ex vivo human scalp skin sections", "format": "cell-based", "procedure": "(§1) The “cross-section” or “diameter” of hair is determined by the microscopic sectioned, newly formed hair shaft diameter in the keratogenous region (in a distance of around 200-350 μm from the ‘germative matrix’). In an ex vivo human scalp skin culture and treatment, 6 mm skin punches (hairy skin from a healthy donor) were made following the hair growth orientation and maintained in normoxic (37° C., 5% CO2) condition. After 24 h resting (and then keeping) the culture in an Air-Liquid Interphase, two topical treatment were performed (day 1 and 3). Punches were embedded in an optimal cutting temperature compound after 5 days of ex vivo culture and cryosectioned (7 μm sections). The average value is calculated from 5 independent measurements for each hair follicle (HF).\nExpression of keratin 85 (KRT85) is set by fluorescence intensity in the precortical hair matrix with a fluorescence microscope at 20× magnification. Skin sections were co-stained o.n. at 4° C. with a guinea pig anti-KRT85 antibody (Progen, 1:200) followed by DAPI (IUPAC: 4′,6-Diamidino-2-phenylindol) counterstain to visualize the nuclei. The mean KRT85 expression value was calculated from all hair follicles with Image J software within each donor, and fold changes values versus vehicle group were determined."}, "[1]": {"tested_on": "hair follicles of ex vivo human scalp skin culture", "assay": "Cross-section / hair shaft diameter in ex vivo human scalp skin culture", "format": "cell-based", "procedure": "as §1\nIn an ex vivo human scalp skin culture, punches (hairy skin from a human donors) were twice (day 1 and 3) treated topically, and analysed via crysectioning after 5 days. The average value for each hair follicle (HF) is calculated from 5 independent measurements, and the following table indicates the mean of all average values over the total number of hair follices (#HFs) measured."}, "[2]": {"target": "T1, olfactory receptor OR2AT4 (Homo sapiens, UniProt A6NND4)", "T1 sequence (A6NND4 1-320)": "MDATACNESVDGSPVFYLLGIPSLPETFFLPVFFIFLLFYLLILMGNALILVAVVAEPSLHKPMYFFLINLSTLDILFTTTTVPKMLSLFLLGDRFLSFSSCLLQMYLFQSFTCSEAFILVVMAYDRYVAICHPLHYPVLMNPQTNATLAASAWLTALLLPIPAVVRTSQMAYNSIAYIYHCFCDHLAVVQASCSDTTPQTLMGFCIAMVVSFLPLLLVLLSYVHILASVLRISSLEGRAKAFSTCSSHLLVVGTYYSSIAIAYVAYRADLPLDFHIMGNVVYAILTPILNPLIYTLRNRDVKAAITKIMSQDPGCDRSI", "settings": "receptor expressed in the epithelium of human hair follicles; cited from earlier work"}},
  "data": [
    {"smiles": "CC1=CCC(CCC(C)C(C)O)C1(C)C", "note": "(centres unmarked) [Sandalore, 3-methyl-5-(2,2,3-trimethylcyclopent-3-en-1-yl) pentan-2-ol]", "values": [
      {"measurement": "KRT85 expression, change vs vehicle group", "setting": "keratin 85 (KRT85); fluorescence intensity, anti-KRT85 antibody staining, precortical hair matrix, mean over hair follicles", "result": 1.347, "unit": "fold"},
      {"measurement": "KRT85 expression, comparison in words", "setting": "keratin 85 (KRT85); fold change values, vs vehicle group or vs Sandalore alone", "result": "significantly higher"},
      {"measurement": "effect on hair shaft diameter as compared to vehicle", "setting": "[1]; ex vivo human scalp skin culture, vs vehicle", "result": "increases the hair shaft diameter significantly"},
      {"measurement": "hair shaft diameter", "setting": "[1]; ex vivo human scalp skin punches, topical treatment day 1 and 3, cryosectioned after 5 days, mean over all hair follicles", "result": 51.1, "unit": "μm"},
      {"measurement": "effect on olfactory receptor OR2AT4", "setting": "[2]", "result": "stimulatory effect"}
    ]}
  ]
}
